# Patent US5698411A, “Method for determining activity of enzymes in metabolically active whole cells” (priority 1995, dated 1997)
# Experiments:
# lymphocytes [1] = assay: enzyme activity with fluorogenic substrate, normal lymphocytes (Table 3A); format: cell-based, human
# monocytes [2] = assay: aberrant enzyme activities in febrile children, monocytes (Table 7); format: cell-based, human
# granulocytes [3] = assay: aberrant enzyme activities in febrile children, granulocytes (Table 7); format: cell-based, human
# lymphocytes [4] = assay: aberrant enzyme activities in febrile children, lymphocytes (Table 7); format: cell-based, human
# erythrocytes = assay: enzyme activity with fluorogenic substrate, normal erythrocytes (Table 3B); format: cell-based, human
# monocytes [5] = assay: enzyme activity with fluorogenic substrate, normal monocytes (Table 3A); format: cell-based, human
# [6] = test system: substituted rhodamine 110 substrates; assay: modulator effect on substituted rhodamine 110 substrates; format: biochemical
# From the text: Modulators are components used to […] the sensitivity of the enzyme for the leaving group. The modulators speed up or slow down the activity of an enzyme by changing the active site. […] Preferred modulators for particular enzymes are included in Table 1.
# granulocytes [7] = assay: enzyme activity with fluorogenic substrate, normal granulocytes (Table 3A); format: cell-based, human
# lymphocytes [8] = assay: peptidase activity in leukemia and non-leukemia patients, lymphocytes (Table 6C); format: cell-based, human; parameters: unit not given here
# granulocytes [9] = assay: peptidase activity in leukemia and non-leukemia patients, granulocytes (Table 6C); format: cell-based, human; parameters: unit not given here
# [10] = test system: metabolically active whole cell; assay: substrate panel in normals and HIV + patients, TB infection (Table 4); format: cell-based, human; parameters: unit not given here
# Experimental: A panel of assay compounds are assembled consisting of Ala-aminopeptidase and Lys-aminopeptidase, Dipeptidyl peptidase IV (Ala-Ala)2 rhodamine 110 and Cathepsin D to indicate possible TB infection in AIDS related cases.
# A panel Of enzymatic substrates is performed consisting of Ala-aminopeptidase and Lys-aminopeptidase, Dipeptidyl peptidase IV (Ala-Ala)2 rhodamine 110 and Cathepsin D to indicate possible TB infection in AIDS related cases.
compound,measurement,setting,value
"CC(=O)Oc1ccc2c(c1)Oc1cc(OC(C)=O)ccc1C21OC(=O)c2ccccc21 [FDA, fluorescein diacetate, reference compound]",NORMAL LEUKOCYTE ENZYME ACTIVITY LYMPHS Mean,lymphocytes [1],13.38
same,"aberrant enzyme activity, MONOS",monocytes [2]; P88 Enteritis,.smallcircle.
same,"aberrant enzyme activity, MONOS",monocytes [2]; P99 Viral Syndrome,.smallcircle.
same,"aberrant enzyme activity, MONOS",monocytes [2]; P102 UTI,.smallcircle.
same,"aberrant enzyme activity, GRANS",granulocytes [3]; P88 Enteritis,.smallcircle.
same,"aberrant enzyme activity, GRANS",granulocytes [3]; P99 Viral Syndrome,.smallcircle.
same,"aberrant enzyme activity, GRANS",granulocytes [3]; P102 UTI,.smallcircle.
same,"aberrant enzyme activity, LYMPHS",lymphocytes [4]; P88 Enteritis,.smallcircle.
same,"aberrant enzyme activity, LYMPHS",lymphocytes [4]; P97 Pyelonephritis,.smallcircle.
same,"aberrant enzyme activity, LYMPHS",lymphocytes [4]; P99 Viral Syndrome,.smallcircle.
same,"aberrant enzyme activity, LYMPHS",lymphocytes [4]; P102 UTI,.smallcircle.
same,NORMAL E[…] ACTIVITY MEAN,erythrocytes,0.126
same,NORMAL LEUKOCYTE ENZYME ACTIVITY MONOS Mean,monocytes [5],66.25
"O[C@H](CS)[C@@H](O)CS [dithioerythritol (DTE), dithioerythritol]",sensitivity of the leaving group for the enzyme,"[6]; 1 mM, Ala-Gly and Leu-Gly substrates",does not change the sensitivity
same,sensitivity of the substituted rhodamine 110 substrates,"[6]; 1 mM, Pro, Gly, Gln-Ser, Val-Lys-Val-Lys, Ala-Ala, Ala-Ala-Ala-Ala substrates",decreases the sensitivity
(Z-Thr--Pro)2 Rho 110 [Z-TP 8.7],NORMAL LEUKOCYTE ENZYME ACTIVITY LYMPHS Mean,lymphocytes [1],35.01
same,"aberrant enzyme activity, MONOS",monocytes [2]; P92 Adenitis,- (>0.25 Decrease over normal range)
same,"aberrant enzyme activity, MONOS",monocytes [2]; P97 Pyelonephritis,.smallcircle.
same,"aberrant enzyme activity, MONOS",monocytes [2]; P103 Viral Syndrome,.smallcircle.
same,NORMAL LEUKOCYTE ENZYME ACTIVITY GRANS Mean,granulocytes [7],82.35
same,"aberrant enzyme activity, GRANS",granulocytes [3]; P92 Adenitis,.smallcircle.
same,"aberrant enzyme activity, GRANS",granulocytes [3]; P97 Pyelonephritis,.smallcircle.
same,"aberrant enzyme activity, GRANS",granulocytes [3]; P103 Viral Syndrome,.smallcircle.
same,"aberrant enzyme activity, LYMPHS",lymphocytes [4]; P92 Adenitis,- (>0.25 Decrease over normal range)
same,"aberrant enzyme activity, LYMPHS",lymphocytes [4]; P97 Pyelonephritis,.smallcircle.
same,"aberrant enzyme activity, LYMPHS",lymphocytes [4]; P103 Viral Syndrome,.smallcircle.
same,NORMAL E[…] ACTIVITY MEAN,erythrocytes,0.161
same,NORMAL LEUKOCYTE ENZYME ACTIVITY MONOS Mean,monocytes [5],76.00
"O[C@H](CS)[C@H](O)CS [Dithiothreitol (DTT), Dithiothreitol]",modulator effect,[6],effective modulator
"CC(=O)Oc1cc2c(cc1Cl)C(c1ccccc1C(=O)O)c1cc(Cl)c(OC(C)=O)cc1O2 [DCFH-DA MES, reference compound]",NORMAL LEUKOCYTE ENZYME ACTIVITY LYMPHS Mean,lymphocytes [1],4.11
same,"aberrant enzyme activity, MONOS",monocytes [2]; P88 Enteritis,.smallcircle.
same,"aberrant enzyme activity, MONOS",monocytes [2]; P89 Viral Stomatitis,+ (>0.25 Increase over normal range)
same,"aberrant enzyme activity, MONOS",monocytes [2]; P92 Adenitis,+ (>0.25 Increase over normal range)
same,"aberrant enzyme activity, MONOS",monocytes [2]; P95 Viral Syndrome,+ (>0.25 Increase over normal range)
same,"aberrant enzyme activity, MONOS",monocytes [2]; P96 Viral Syndrome,+ (>0.25 Increase over normal range)
same,"aberrant enzyme activity, MONOS",monocytes [2]; P97 Pyelonephritis,+ (>0.25 Increase over normal range)
same,"aberrant enzyme activity, MONOS",monocytes [2]; P99 Viral Syndrome,.smallcircle.
same,"aberrant enzyme activity, MONOS",monocytes [2]; P101 Fever -- Unknown Origin,+ (>0.25 Increase over normal range)
same,"aberrant enzyme activity, MONOS",monocytes [2]; P102 UTI,.smallcircle.
same,"aberrant enzyme activity, MONOS",monocytes [2]; P103 Viral Syndrome,+ (>0.25 Increase over normal range)
same,NORMAL LEUKOCYTE ENZYME ACTIVITY GRANS Mean,granulocytes [7],7.49
same,"aberrant enzyme activity, GRANS",granulocytes [3]; P88 Enteritis,.smallcircle.
same,"aberrant enzyme activity, GRANS",granulocytes [3]; P89 Viral Stomatitis,+ (>0.25 Increase over normal range)
same,"aberrant enzyme activity, GRANS",granulocytes [3]; P92 Adenitis,+ (>0.25 Increase over normal range)
same,"aberrant enzyme activity, GRANS",granulocytes [3]; P95 Viral Syndrome,+ (>0.25 Increase over normal range)
same,"aberrant enzyme activity, GRANS",granulocytes [3]; P96 Viral Syndrome,+ (>0.25 Increase over normal range)
same,"aberrant enzyme activity, GRANS",granulocytes [3]; P97 Pyelonephritis,+ (>0.25 Increase over normal range)
same,"aberrant enzyme activity, GRANS",granulocytes [3]; P99 Viral Syndrome,.smallcircle.
same,"aberrant enzyme activity, GRANS",granulocytes [3]; P101 Fever -- Unknown Origin,+ (>0.25 Increase over normal range)
same,"aberrant enzyme activity, GRANS",granulocytes [3]; P102 UTI,.smallcircle.
same,"aberrant enzyme activity, GRANS",granulocytes [3]; P103 Viral Syndrome,+ (>0.25 Increase over normal range)
same,"aberrant enzyme activity, LYMPHS",lymphocytes [4]; P88 Enteritis,.smallcircle.
same,"aberrant enzyme activity, LYMPHS",lymphocytes [4]; P89 Viral Stomatitis,+ (>0.25 Increase over normal range)
same,"aberrant enzyme activity, LYMPHS",lymphocytes [4]; P92 Adenitis,+ (>0.25 Increase over normal range)
same,"aberrant enzyme activity, LYMPHS",lymphocytes [4]; P95 Viral Syndrome,+ (>0.25 Increase over normal range)
same,"aberrant enzyme activity, LYMPHS",lymphocytes [4]; P96 Viral Syndrome,+ (>0.25 Increase over normal range)
same,"aberrant enzyme activity, LYMPHS",lymphocytes [4]; P97 Pyelonephritis,.smallcircle.
same,"aberrant enzyme activity, LYMPHS",lymphocytes [4]; P99 Viral Syndrome,.smallcircle.
same,"aberrant enzyme activity, LYMPHS",lymphocytes [4]; P101 Fever -- Unknown Origin,+ (>0.25 Increase over normal range)
same,"aberrant enzyme activity, LYMPHS",lymphocytes [4]; P102 UTI,.smallcircle.
same,"aberrant enzyme activity, LYMPHS",lymphocytes [4]; P103 Viral Syndrome,+ (>0.25 Increase over normal range)
same,NORMAL E[…] ACTIVITY MEAN,erythrocytes,0.286
same,NORMAL LEUKOCYTE ENZYME ACTIVITY MONOS Mean,monocytes [5],12.28
O=C1OC2(c3ccc(OC4O[C@H](CO)[C@@H](O)[C@H](O)[C@H]4O)cc3Oc3cc(OC4O[C@H](CO)[C@@H](O)[C@H](O)[C@H]4O)ccc32)c2ccccc21 (stereo partly drawn) [DIGLUC (FL)],NORMAL LEUKOCYTE ENZYME ACTIVITY LYMPHS Mean,lymphocytes [1],0.23
same,NORMAL LEUKOCYTE ENZYME ACTIVITY GRANS Mean,granulocytes [7],0.45
same,NORMAL E[…] ACTIVITY MEAN,erythrocytes,0.110
(Gly)2 Rho 110,"enzyme activity, Lymphs",lymphocytes [8]; J4 11/21/91 acute leuk.,14.02
same,"enzyme activity, Lymphs",lymphocytes [8]; J4 12/2/91 A L,27.32
same,"enzyme activity, Lymphs",lymphocytes [8]; J4 12/3/91 acute leuk.,31.51
same,"enzyme activity, Lymphs",lymphocytes [8]; J5 11/27/91 A M L,28.36
same,"enzyme activity, Lymphs",lymphocytes [8]; J19 11/27/91 C L L,11.39
same,"enzyme activity, Lymphs",lymphocytes [8]; J22 12/2/91 A M L,24.50
same,"enzyme activity, Lymphs",lymphocytes [8]; J22 12/9/91 A M L,27.14
same,"enzyme activity, Lymphs",lymphocytes [8]; N191 normal,43.57
same,"enzyme activity, Lymphs",lymphocytes [8]; N192 normal,37.47
same,"enzyme activity, Lymphs",lymphocytes [8]; N193 normal,39.30
same,"enzyme activity, Lymphs",lymphocytes [8]; N194 normal,39.76
same,"enzyme activity, Lymphs",lymphocytes [8]; N195 normal,48.18
same,"enzyme activity, Lymphs",lymphocytes [8]; N197 normal,42.96
same,"enzyme activity, Lymphs",lymphocytes [8]; N199 normal,30.68
same,"enzyme activity, Lymphs",lymphocytes [8]; N200 normal,42.28
same,"enzyme activity, Lymphs",lymphocytes [8]; N201 normal,45.32
same,"enzyme activity, Lymphs",lymphocytes [8]; N202 normal,44.55
same,"enzyme activity, Lymphs",lymphocytes [8]; N206 normal,55.56
same,"enzyme activity, Lymphs",lymphocytes [8]; P68 tachycardia,59.29
same,"enzyme activity, Lymphs",lymphocytes [8]; P69 pancreatic CA,67.38
same,"enzyme activity, Lymphs",lymphocytes [8]; P70 cirrhosis/hemobilia,54.84
same,"enzyme activity, Lymphs",lymphocytes [8]; P71 ac. pyelonephritis,41.93
same,NORMAL LEUKOCYTE ENZYME ACTIVITY LYMPHS Mean,lymphocytes [1],18.18
same,"enzyme activity, Grans",granulocytes [9]; J4 11/21/91 acute leuk.,27.79
same,"enzyme activity, Grans",granulocytes [9]; J4 12/2/91 A L,47.74
same,"enzyme activity, Grans",granulocytes [9]; J4 12/3/91 acute leuk.,48.53
same,"enzyme activity, Grans",granulocytes [9]; J5 11/27/91 A M L,56.33
same,"enzyme activity, Grans",granulocytes [9]; J19 11/27/91 C L L,48.80
same,"enzyme activity, Grans",granulocytes [9]; J22 12/2/91 A M L,34.02
same,"enzyme activity, Grans",granulocytes [9]; J22 12/9/91 A M L,38.47
same,"enzyme activity, Grans",granulocytes [9]; N191 normal,73.20
same,"enzyme activity, Grans",granulocytes [9]; N192 normal,48.67
same,"enzyme activity, Grans",granulocytes [9]; N193 normal,63.33
same,"enzyme activity, Grans",granulocytes [9]; N194 normal,60.30
same,"enzyme activity, Grans",granulocytes [9]; N195 normal,79.13
same,"enzyme activity, Grans",granulocytes [9]; N197 normal,76.88
same,"enzyme activity, Grans",granulocytes [9]; N199 normal,45.00
same,"enzyme activity, Grans",granulocytes [9]; N200 normal,59.39
same,"enzyme activity, Grans",granulocytes [9]; N201 normal,75.48
same,"enzyme activity, Grans",granulocytes [9]; N202 normal,66.22
same,"enzyme activity, Grans",granulocytes [9]; N206 normal,91.93
same,"enzyme activity, Grans",granulocytes [9]; P68 tachycardia,100.00
same,"enzyme activity, Grans",granulocytes [9]; P69 pancreatic CA,88.04
same,"enzyme activity, Grans",granulocytes [9]; P70 cirrhosis/hemobilia,88.42
same,"enzyme activity, Grans",granulocytes [9]; P71 ac. pyelonephritis,59.35
same,"aberrant enzyme activity, MONOS",monocytes [2]; P88 Enteritis,.smallcircle.
same,"aberrant enzyme activity, MONOS",monocytes [2]; P89 Viral Stomatitis,.smallcircle.
same,"aberrant enzyme activity, MONOS",monocytes [2]; P92 Adenitis,.smallcircle.
same,"aberrant enzyme activity, MONOS",monocytes [2]; P97 Pyelonephritis,+ (>0.25 Increase over normal range)
same,"aberrant enzyme activity, MONOS",monocytes [2]; P103 Viral Syndrome,.smallcircle.
same,NORMAL LEUKOCYTE ENZYME ACTIVITY GRANS Mean,granulocytes [7],29.48
same,"aberrant enzyme activity, GRANS",granulocytes [3]; P88 Enteritis,.smallcircle.
same,"aberrant enzyme activity, GRANS",granulocytes [3]; P89 Viral Stomatitis,.smallcircle.
same,"aberrant enzyme activity, GRANS",granulocytes [3]; P92 Adenitis,.smallcircle.
same,"aberrant enzyme activity, GRANS",granulocytes [3]; P97 Pyelonephritis,.smallcircle.
same,"aberrant enzyme activity, GRANS",granulocytes [3]; P102 UTI,.smallcircle.
same,"aberrant enzyme activity, GRANS",granulocytes [3]; P103 Viral Syndrome,.smallcircle.
same,"aberrant enzyme activity, LYMPHS",lymphocytes [4]; P88 Enteritis,.smallcircle.
same,"aberrant enzyme activity, LYMPHS",lymphocytes [4]; P89 Viral Stomatitis,- (>0.25 Decrease over normal range)
same,"aberrant enzyme activity, LYMPHS",lymphocytes [4]; P92 Adenitis,.smallcircle.
same,"aberrant enzyme activity, LYMPHS",lymphocytes [4]; P97 Pyelonephritis,.smallcircle.
same,"aberrant enzyme activity, LYMPHS",lymphocytes [4]; P102 UTI,.smallcircle.
same,"aberrant enzyme activity, LYMPHS",lymphocytes [4]; P103 Viral Syndrome,.smallcircle.
same,MEAN DELTA FL,[10]; HIV + PATIENTS,62.4
same,MEAN DELTA FL,[10]; NORMALS,101.1
same,NORMAL LEUKOCYTE ENZYME ACTIVITY MONOS Mean,monocytes [5],61.47
